Measurements reported in patent US20110046070A1, “GENE EXPRESSION INHIBITOR SELECTIVE FOR MATRIX METALLOPROTEINASE-9 GENE” (priority 2008, published 2011).

Legend:
Type in all cases: cell-based, human
MDA-MB-231 cells = assay: Invasion assay into matrigel, MDA-MB-231; details: 22 hours
Procedure: (§1) Cell invasion assay was conducted using a 24-well cell culture BioCoat matrigel invasion chamber (BD Biosciences, Discovery Labware, Bedford, Mass., USA). MDA-MB-231 cells (1×10^3 cells/well) or HeLa cells (1×10^3 cells/well) were suspended in an RPMI1640 or DMEM medium containing 0.1% FBS and added to the upper chamber. An RPMI1640 or DMEM medium containing 5% FBS was added to the lower chamber. Then, the cells were cultured at 37° C. for 22 hours in a 5% CO2 environment. Noninvasive cells remaining on the membrane were wiped off using a cotton swab. Invasion cells were fixed and stained with a Diff-Quik kit. The number of cells invading the membrane was determined in mean±standard deviation from a total of 3 membranes by counting in 10 fields of view per membrane using an optical microscope (200× magnification).
The degradation of constitutive proteins of extracellular matrix is important for the invasion of tumor cells. To evaluate the influence of HMMP9AP1 and HMMP9NFκβ, the MMP9 Py-Im polyamides of the present invention, on the invasion of tumor cells, 5×10^3 MDA-MB-231 cells were incubated with each polyamide at various concentrations for 22 hours. The invasiveness of cells treated with DMSO or each polyamide of the present invention was compared in MDA-MB-231 cells. The DMSO-treated MDA-MB-231 cells remarkably invaded the transparent membrane coated with matrigel. […] In contrast, the cells treated with the HMMP9AP1 or HMMP9NFκβ of the present invention had much lower invasion into the membrane.

HeLa cells [1] = assay: Invasion assay into matrigel, HeLa; details: various concentrations
Procedure: as §1

[2] = system: MMP-9 mRNA in MDA-MB-231 cells; assay: Real-time RT-PCR assay (mRNA expression assay); details: 48 hours, MDA-MB-231, vs DMSO control, normalized to GAPDH
Procedure: MDA-MB-231 cells were treated with each polyamide of the present invention at various concentrations. 48 hours after the treatment, cell fractions were subjected to RNA separation using a TRIzol reagent (Invitrogen Life Technologies, Corp.) according to the manufacturer's manual. RNA was treated with DNase prior to cDNA synthesis. Complementary DNA strands were synthesized by reverse transcription using SuperScript™ First-Strand kit (Invitrogen Life Technologies, Corp.). In real-time RT-PCR (Thermal cycler Dice Real Time system TP800, Takara Bio Inc., Japan), SYBR Premix Ex Taq Kit (Takara Bio Inc.) was used. Primers for HMMP9AP1 (forward, 5′-[…]-3′, SEQ ID NO: 12; reverse 5′-[…]-3′, SEQ ID NO: 13; 236 bp) and internal standard human endogenous glyceraldehyde-3-phosphate dehydrogenase (GADPH; forward, 5′-[…]-3′, SEQ ID NO: 14; reverse, 5′-TGGTGAAGACGCCAGTGGA-3′, SEQ ID NO: 15; 138 bp) were used. Moreover, primers for HMMP9NFKκβ (forward, 5′-[…]-3′, SEQ ID NO: 16; reverse, 5′-[…]-3′, SEQ ID NO: 17; 236 bp) and internal standard human endogenous glyceraldehyde-3-phosphate dehydrogenase (GADPH; forward, 5′-[…]-3′, SEQ ID NO: 18; reverse, 5′-TGGTGAAGACGCCAGTGGA-3′, SEQ ID NO: 19; 138 bp) were used. 25 μl of two-step RT-PCR mixture consists of 12.5 μl of SYBR Premix Ex TAq, 0.5 μl each of forward and reverse primers, 10.5 μl of RNase-free water and 1 μl of template cDNA. The real-time cycle conditions were performed by a reaction system involving 95° C. for 10 seconds, 95° C. for 5 seconds and 60° C. for 30 seconds. The quantification of the MMP-9 gene was normalized by comparison with GAPDH expression.

HeLa cells [3] = assay: Growth inhibition assay, HeLa; details: 0 μM to 30 μM, 72 hours, WST-8
Procedure: Cell growth inhibition test was conducted using MDA-MB-231 and HeLa cells. The HeLa cells were inoculated at a concentration of 2500 cells/well to a 96-well microtiter plate and incubated for 24 hours in 100 μl of Dulbecco's modified Eagle medium (DMEM) containing 10% fetal bovine serum (Invitrogen). Then, after medium replacement, the cells were cultured for 72 hours in a medium supplemented with 10% fetal bovine serum containing 0 μM to 30 μM (0 μM, 0.3 μM, 1 μM, 3 μM, 10 μM and 30 μM) polyamide HMMP9NFκβ, and 10 μl of live cell counting reagent SF (Nacalai Tesque, Inc.) was added thereto, followed by 2-hour color reaction. Absorbance was measured at 450 nm using an ARVO microtiter plate reader. This experiment was conducted by modified MTT assay (WST-8 ™: Nacalai Tesque, Inc.) using water-soluble formazan.

[4] = system: MMP-9 protein in MDA-MB-231 cells; assay: Western blotting analysis (protein assay); details: MDA-MB-231, 48 hours, various concentrations, vs DMSO control
Procedure: MDA-MB-231 cells were treated with the polyamide of the present invention at various concentrations. 48 hours after the treatment, the cells were collected, and the total cell lysate was prepared into an extraction buffer containing a protease inhibition cocktail (Boehringer Ingelheim GmbH, Germany) containing 50 mM Tris-HCl, 150 mM NaCl, 10 mM EDTA and 1% Triton-X. Homogenates were centrifuged at 15,000×g at 4° C. for 10 minutes. The supernatants were collected, and protein concentrations were measured. The protein sample (10 μg) was electrophoresed on NuPAGE+™ 10% Bis-Tris gel (Invitrogen Life Technologies, Corp.) and transferred to a PVDF (polyvinylidene difluoride) membrane (Millipore, Bedford, Mass.). The PVDF membrane was incubated overnight with rabbit anti-MMP-9 polyclonal antibodies (Calbiochem (registered trademark) Biosciences, Inc. La Jolla, Calif.) (1:500) obtained from Calbiochem (registered trademark). The PVDF membrane was washed three times with a Tris buffer containing 0.2% Tween 20. The immunoconjugated proteins were identified through reaction with peroxidase-conjugated goat antibodies against rabbit IgG (MP Biomedicals, Inc.) and subsequently amplified by chemiluminescence detection (Amersham, Piscataway, N.J.).

Row | SMILES | decrease in invasion compared to the DMSO-treated control (MDA-MB-231 cells; 0.3 μM) | decrease in invasion compared to the DMSO-treated control (MDA-MB-231 cells; 1 μM) | decrease in invasion compared to the DMSO-treated control (MDA-MB-231 cells; 3 μM) | decrease in invasion compared to the DMSO-treated control (MDA-MB-231 cells; 10 μM) | invasion of HeLa cells into matrigel (HeLa cells [1]) | decrease of the expression level of MMP-9 mRNA ([2]; 0.3 μM) | decrease of the expression level of MMP-9 mRNA ([2]; 1 μM) | decrease of the expression level of MMP-9 mRNA ([2]; 3 μM) | decrease of the expression level of MMP-9 mRNA ([2]; 10 μM) | number of live cells (growth inhibition) (HeLa cells [3]) | expression of MMP-9 protein [4]
1 | CC(=O)Nc1cn(C)c(C(=O)Nc2cc(C(=O)NCCC(=O)Nc3cn(C)c(C(=O)Nc4cc(C(=O)Nc5cc(C(=O)NCCCC(=O)Nc6cn(C)c(C(=O)Nc7cn(C)c(C(=O)Nc8cc(C(=O)NCCC(=O)Nc9cn(C)c(C(=O)Nc%10cc(C(=O)NCCC(=O)NCCCN(C)C)n(C)c%10)n9)n(C)c8)n7)n6)n(C)c5)n(C)c4)n3)n(C)c2)n1 [HMMP9AP1] | 90% | 52% | 44% | 25.4% | inhibited the invasion activities | 84% | 54% | 38% | 26% | decreased the number of live cells | remarkably inhibited
2 | CC(=O)Nc1cc(C(=O)Nc2cc(C(=O)NCCC(=O)Nc3cc(C(=O)Nc4cc(C(=O)NCCCC(=O)Nc5cn(C)c(C(=O)Nc6cn(C)c(C(=O)NCCC(=O)Nc7cc(C(=O)Nc8cc(C(=O)NCCC(=O)NCCCN(C)C)n(C)c8)n(C)c7)n6)n5)n(C)c4)n(C)c3)n(C)c2)n(C)c1 [HMMP9NFκβ] | 88% | 61% | 30% | 22% | invasion into matrigel decreases in an HMMP9NFκβ concentration-dependent manner | 86% | 68% | 40% | 28% | decreased the number of live cells in a concentration-dependent manner | decreased in an HMMP9NFκβ concentration-dependent manner
